Experimental findings from US4604382A, “3'-amino-2',3'-dideoxycytidine and the pharmacologically acceptable salts thereof” (Research Corporation, priority 1983, dated 1986) are described below.

Series [1] can be described thus: Water solubility of the new compound. The note with it: at 23° C. The class given is physicochemical. On the procedure:
The new compound has excellent water solubility (~0.5 g/mL at 23° C.) and readily forms non-toxic acid addition salts with a variety of pharmacologically acceptable organic and inorganic salt-formingreagents. Thus, acid addition salts formed by admixture of the organic free base with up to two equivalents of an acid, suitably in a neutral solvent, are formed with such acids as sulfuric, phosphoric, hydrochloric,hydrobromic, sulfamic, citric, lactic, malic, succinic, tartaric, acetic, benzoic, gluconic, ascorbic, and the like. For purposes of this invention, the free base is equivalent to the non-toxic acid addition salts. The acid addition salts are, in general, crystalline solids, very soluble in water, relatively soluble in methanol and ethanol but relatively insoluble in non-polar organic solvents such as diethyl ether, benzene, toluene, and the like.

In series [2] the test system is L1210 cells. As to the kind of experiment: Inhibition of replication of L1210 cells in vitro. The format is cell-based. The note with it: Mus musculus, mean cell counts after 72 hours, triplicate, read-out: ID50 (L1210). The protocol: (§1) Mouse L1210 and S-180 cells were maintained as suspension cultures in Fischer's medium supplemented with 10% horse serum at 37° C. in a humidified atmosphere of 5% CO2 -95% air. Under these conditions the generation time for L1210 and S-180 cells is approximately 12 and 18 hours, respectively. The test compound at the given concentration, was added to L1210 and S-180 cells (2×10^4 cells/mL) which were in their exponential phase of growth. The increase in cell number of the drug-free culture (control), as well as that of the cultures supplemented with the test compound, was determined after 24, 48 and 72 hours of growth.
(§2) 3'-Amino-2',3'-dideoxycytidine was also screened against S-180 neoplastic cells in vitro. The ID50 values were estimated from dose-response curves compiled from at least two independent experiments and represent the drug concentration required to inhibit replication of L1210 or S-180 neoplastic cells by 50%.
(§3) ID50 values were determined from plots of mean cell counts after 72
(§4) hours. Assays were carried out in triplicate with appropriate controls.

Series [3] relates to L1210 leukemia. As to the kind of experiment: L1210 leukemia in CDF1 mice, survival time (T/C). The class given is in vivo, mouse (CDF1 female mice). The following applies: 160 mg/kg i.p. twice a day for 3 days, starting 24 hours post inoculation of 1×10^5 L1210 cells. The protocol: Transplantation of L1210 ascites cells was carried out by withdrawing peritoneal fluid from donor CDF1 mice bearing 7-day growths. The suspension was centrifuged for 2 minutes (1600 g), the supernatant peritoneal fluid was decanted, and a 10-fold dilution with isotonic saline was made. The cell number was determined with a Coulter particle counter and the cell population was adjusted to 10^6 cells/mL. One-tenth mL of the resulting cell suspension (containing approximately 10^5 cells) was injected intraperitoneally into each animal. The drug was administered by intraperitoneal injection, beginning 24 hours after tumor implantation,twice daily for 3 consecutive days. The test compound was injected as a solution in isotonic saline. The drug was administered intraperitoneally in a volume of 0.25 mL. […] Mice were weighed during the course of the experiments, and the percentage change in body weight from onset to termination of therapy was used as an indication of drug toxicity. Determination of the sensitivity of ascitic neoplasms to this agent were based on the prolongation of survival time afforded by the drug treatments. The median survival time and the ratio of survival time for treated (T)/control (C) was calculated.
3'-Amino-2',3'-dideoxycytidine was screened against CDF1 female mice bearing L1210 leukemia according to the above protocol. Three groups of mice with 4 mice in each group were inoculated with 1×10^5 L1210 murine leukemia cells. Starting 24 hours post inoculation, the first group of mice was injected with saline as the vehicle control, the second group with 160 mg/kg of the test compound in saline twice a day, for 3 days. All control mice died by day 9. In the group treated with the test compound, one mouse died at day 21, the second at day 24, the third at day 29 and the last one at day 31, yielding a T/C×100 value of 283.

Series [4] concerns S-180 cells. In words: Inhibition of replication of S-180 cells in vitro. The class given is cell-based. The following applies: Mus musculus, mean cell counts after 72 hours, triplicate, read-out: ID50 (S-180). On the procedure: as §1, §2, §3, §4
The subject of series [5] is cytotoxicity of the novel compound. The format is cell-based. The note with it: in words. On the procedure: (§5) At a 5 μM concentration of this compound the addition of 25 μM and 100 μM of 2'-deoxycytidine prevented the cytotoxicity of the novel compound against L1210 cells by 35% and 100% respectively.
The subject of series [6] is S-180 cells. The format is cell-based, mouse. The following applies: 25 μM 2'-deoxycytidine added to 20 μM of the new compound. On the procedure:
as §1, §5

The subject of series [7] is L1210 cells. The class given is cell-based, mouse. The protocol: as §1, §5
[8] abbreviates: 4 mice, all controls died by day 9.

The structures appear in SMILES notation. Values after ≈ are worked out from the molar mass of the structure shown. Like-named read-outs stand apart in the source and are kept apart here.

Consider `Nc1ccn([C@H]2C[C@H](N)[C@@H](CO)O2)c(=O)n1` [3'-amino-2',3'-dideoxycytidine, 3'-Amino-2',3'-dideoxycytidine], for which the solubility (as a rule, the dissolved amount per volume that the medium holds) in series [1] is ~500 mg/mL (≈ 2210 mM). Moreover, in series [2], the IC50 is 0.7 µM. The “T/C×100 (survival time treated/control)” value in series [3] was found to be 283. In addition, in series [3] (setting [8]), the “day of death, first mouse” value amounted to 21 days; the “day of death, last mouse” value was 31 days; the “day of death, second mouse” value is 24 days; the “day of death, third mouse” value is 29 days. Further, in series [4], the IC50 came out at 4 µM.

`Nc1ccn([C@H]2C[C@H](O)[C@@H](CO)O2)c(=O)n1` [2'-deoxycytidine]: the “prevention of the cytotoxicity of the novel compound” value in series [5] was “uniquely prevented”. In addition, in series [6], the “prevention of the cytotoxicity of the novel compound against S-180 cells” value is 27%. The “prevention of the cytotoxicity of the novel compound against L1210 cells” value in series [7] (25 μM 2'-deoxycytidine added to 5 μM of the novel compound) is recorded as 35%; in series [7] (100 μM 2'-deoxycytidine added to 5 μM of the novel compound) it was 100%. For the same compound, in series [7] (dose dependence, in words), the “preventive effect on the cytotoxicity of the novel compound against L1210 cells” value was “dose dependent”.
